# Data reported in ChEMBL document CHEMBL1201862, “PubChem BioAssay data set” (2004).
#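 Results reflect a 48-hour exposure of cells in 96-well plates to compound at five concentrations. GI50 is the concentration that inhibits growth by half.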 Activity calls are given as the source filed them. No stated cut-off is given here; in the data, active = GI50 up to about 1.1 µM and inactive = higher.
# Tests used:
# Assay in all cases: inhibition of tumour cell growth, NCI panel, 48 h
# [1] = test system: A498
# [2] = test system: A549
# [3] = test system: ACHN
# [4] = test system: CCRF-CEM
# [5] = test system: DU-145
# [6] = test system: EKVX
# [7] = test system: HCT-15
# [8] = test system: Hs-578T
# [9] = test system: KM12
# [10] = test system: OVCAR-4
# [11] = test system: OVCAR-8
# [12] = test system: PC-3
# [13] = test system: SF-295
# [14] = test system: SF-539
# [15] = test system: SK-MEL-28
# [16] = test system: SR
# [17] = test system: TK-10
# [18] = test system: UO-31
# [19] = test system: HCC 2998
# [20] = test system: Malme-3M
SMILES,GI50 [1],GI50 [2],GI50 [3],GI50 [4],GI50 [5],GI50 [6],GI50 [7],GI50 [8],GI50 [9],GI50 [10],GI50 [11],GI50 [12],GI50 [13],GI50 [14],GI50 [15],GI50 [16],GI50 [17],GI50 [18],GI50 [19],GI50 [20]
C=CC1OC(CCCOC(=O)C(C)(C)C)O[C@@H]1CC (some centres not stated),> 100 µM (inactive),> 100 µM (inactive),> 100 µM (inactive),> 100 µM (inactive),> 100 µM (inactive),> 100 µM (inactive),> 100 µM,> 100 µM (inactive),> 100 µM (inactive),> 100 µM (inactive),> 100 µM (inactive),> 100 µM (inactive),> 100 µM (inactive),> 100 µM (inactive),> 100 µM (inactive),> 100 µM (inactive),> 100 µM (inactive),> 100 µM (inactive),,
CCN1c2ccccc2NC(=S)c2c(-c3ccccc3)n[nH]c21,,24.8 µM (inactive),37.2 µM (inactive),18.3 µM (inactive),39.9 µM (inactive),21 µM (inactive),23 µM,75.5 µM (inactive),31.7 µM (inactive),36.6 µM (inactive),39.4 µM (inactive),25.6 µM (inactive),27.4 µM (inactive),39.4 µM (inactive),45.6 µM (inactive),24.7 µM (inactive),48.4 µM (inactive),,3.99 µM (inactive),
O=S(=O)(c1ccccc1)C1CC(c2nc3ccccc3[nH]2)=NO1 (configuration not stated),43 µM (inactive),> 100 µM (inactive),> 100 µM (inactive),21.8 µM (inactive),> 100 µM (inactive),84.9 µM (inactive),51.3 µM,> 100 µM (inactive),,> 100 µM (inactive),> 100 µM (inactive),> 100 µM (inactive),> 100 µM (inactive),51.4 µM (inactive),> 100 µM (inactive),29.3 µM (inactive),74.8 µM (inactive),> 100 µM (inactive),> 100 µM (inactive),8.26 µM (inactive)
Cc1cn(C2CCN(CC3COC(C)(C)O3)O2)c(=O)[nH]c1=O (configuration not stated),> 100 µM (inactive),> 100 µM (inactive),> 100 µM (inactive),> 100 µM (inactive),> 100 µM (inactive),> 100 µM (inactive),> 100 µM,> 100 µM (inactive),> 100 µM (inactive),> 100 µM (inactive),> 100 µM (inactive),> 100 µM (inactive),> 100 µM (inactive),> 100 µM (inactive),> 100 µM (inactive),> 100 µM (inactive),> 100 µM (inactive),> 100 µM (inactive),,> 100 µM (inactive)
N#CC1(C#N)N[C@@H](c2ccsc2)[C@H]2C(=O)N(c3ccccc3)C(=O)[C@H]21,26.4 µM (inactive),> 100 µM (inactive),> 100 µM (inactive),,66.4 µM (inactive),> 100 µM (inactive),,83.6 µM (inactive),> 100 µM (inactive),,> 100 µM (inactive),53.7 µM (inactive),> 100 µM (inactive),,77.8 µM (inactive),21.3 µM (inactive),> 100 µM (inactive),> 100 µM (inactive),,> 100 µM (inactive)
C[n+]1c2ccccc2n2c3ccccc3c(NCCCn3ccnc3)c(C#N)c21,13.4 µM (inactive),3.92 µM (inactive),3.48 µM (inactive),,2.77 µM (inactive),4.78 µM (inactive),5.66 µM,1.64 µM (inactive),2.01 µM (inactive),1.61 µM (inactive),1.55 µM (inactive),2.02 µM (inactive),3.74 µM (inactive),3.94 µM (inactive),3.48 µM (inactive),1.27 µM (inactive),7.11 µM (inactive),7.21 µM (inactive),1.36 µM (inactive),1.9 µM (inactive)
COC(=O)c1ccccc1Nc1ccccc1C(=O)OC,52.8 µM (inactive),93.1 µM (inactive),> 100 µM (inactive),> 100 µM (inactive),> 100 µM (inactive),> 100 µM (inactive),> 100 µM,20.8 µM (inactive),> 100 µM (inactive),48.9 µM (inactive),89.7 µM (inactive),39.5 µM (inactive),39.4 µM (inactive),83 µM (inactive),> 100 µM (inactive),,41.2 µM (inactive),,,37.9 µM (inactive)
CCOC(=O)c1c(NC(=O)Nc2ccccc2)c(C(N)=O)c2n1CCCCC2,> 100 µM (inactive),,> 100 µM (inactive),> 100 µM (inactive),> 100 µM (inactive),> 100 µM (inactive),> 100 µM,> 100 µM (inactive),> 100 µM (inactive),> 100 µM (inactive),> 100 µM (inactive),> 100 µM (inactive),> 100 µM (inactive),> 100 µM (inactive),> 100 µM (inactive),> 100 µM (inactive),> 100 µM (inactive),> 100 µM (inactive),> 100 µM (inactive),
CC(C)(C)OC(=O)NC(Cc1ccc(OCc2ccccc2)cn1)C(=O)N1CCCC1 (configuration not stated),> 100 µM (inactive),> 100 µM (inactive),> 100 µM (inactive),44.8 µM (inactive),> 100 µM (inactive),66.8 µM (inactive),74.3 µM,> 100 µM (inactive),65.5 µM (inactive),,40.6 µM (inactive),33.4 µM (inactive),30.1 µM (inactive),23.2 µM (inactive),> 100 µM (inactive),> 100 µM (inactive),> 100 µM (inactive),> 100 µM (inactive),> 100 µM (inactive),30.3 µM (inactive)
CCOP(=O)(COCCn1nc(Br)c(=O)[nH]c1=O)OCC,> 100 µM (inactive),> 100 µM (inactive),> 100 µM (inactive),> 100 µM (inactive),> 100 µM (inactive),> 100 µM (inactive),> 100 µM,> 100 µM (inactive),> 100 µM (inactive),,> 100 µM (inactive),> 100 µM (inactive),,> 100 µM (inactive),> 100 µM (inactive),> 100 µM (inactive),,> 100 µM (inactive),> 100 µM (inactive),> 100 µM (inactive)
CN1C[C@H]2[C@@H](C1=O)[C@H](c1ccc([N+](=O)[O-])cc1)ON2C,,> 100 µM (inactive),> 100 µM (inactive),> 100 µM (inactive),> 100 µM (inactive),,> 100 µM,> 100 µM (inactive),,> 100 µM (inactive),> 100 µM (inactive),> 100 µM (inactive),> 100 µM (inactive),,> 100 µM (inactive),> 100 µM (inactive),> 100 µM (inactive),> 100 µM (inactive),> 100 µM (inactive),
CCOC(=O)c1ccc(Nc2nc3cc(C(F)(F)F)ccc3nc2C(=O)OCC)cc1,36.6 µM (inactive),39.6 µM (inactive),42 µM (inactive),> 100 µM (inactive),> 100 µM (inactive),> 100 µM (inactive),> 100 µM,> 100 µM (inactive),> 100 µM (inactive),,51.6 µM (inactive),47.8 µM (inactive),38.3 µM (inactive),50.9 µM (inactive),> 100 µM (inactive),> 100 µM (inactive),26.4 µM (inactive),> 100 µM (inactive),22.1 µM (inactive),
c1ccc2c(c1)N=C(NC1CCCCC1)CCN2,> 100 µM (inactive),> 100 µM (inactive),> 100 µM (inactive),> 100 µM (inactive),> 100 µM (inactive),> 100 µM (inactive),> 100 µM,> 100 µM (inactive),> 100 µM (inactive),> 100 µM (inactive),> 100 µM (inactive),> 100 µM (inactive),> 100 µM (inactive),,> 100 µM (inactive),,> 100 µM (inactive),> 100 µM (inactive),,> 100 µM (inactive)
O/N=C1/CCCCC1NO (configuration not stated),,> 100 µM (inactive),> 100 µM (inactive),> 100 µM (inactive),> 100 µM (inactive),> 100 µM (inactive),> 100 µM,> 100 µM (inactive),> 100 µM (inactive),> 100 µM (inactive),> 100 µM (inactive),> 100 µM (inactive),> 100 µM (inactive),> 100 µM (inactive),> 100 µM (inactive),> 100 µM (inactive),> 100 µM (inactive),> 100 µM (inactive),> 100 µM (inactive),> 100 µM (inactive)
CC(=O)O[C@H]1C[C@]2(C)C(CCC3O[C@@]32C)[C@@]2(CC(c3ccoc3)OC2O)[C@@H]1C (some centres not stated),> 100 µM (inactive),> 100 µM (inactive),> 100 µM (inactive),30.7 µM (inactive),> 100 µM (inactive),> 100 µM (inactive),37.8 µM,> 100 µM (inactive),78.3 µM (inactive),41 µM (inactive),> 100 µM (inactive),50.1 µM (inactive),> 100 µM (inactive),> 100 µM (inactive),> 100 µM (inactive),39.2 µM (inactive),> 100 µM (inactive),59.3 µM (inactive),> 100 µM (inactive),
Cc1cc(O)c(C(C)C)cc1SC#N,17.1 µM (inactive),,16.2 µM (inactive),3.51 µM (inactive),15.5 µM (inactive),,17.3 µM,20.5 µM (inactive),17.6 µM (inactive),13.5 µM (inactive),17.7 µM (inactive),17.1 µM (inactive),17.3 µM (inactive),15.6 µM (inactive),17.4 µM (inactive),,16.9 µM (inactive),,17.2 µM (inactive),17.4 µM (inactive)
